Laboratory results reported in ChEMBL document CHEMBL1201862, “PubChem BioAssay data set” (2004).
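Grown in 96-well plates, cells were treated for 48 hours with each compound at five concentrations. Insufficient inhibition: endpoint recorded as highest concentration tested. GI50 = concentration required for 50% inhibition of growth.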 Calls of active or inactive are those of the source. No stated cut-off is given here; in the data, active = GI50 up to about 1.1 µM and inactive = higher.

Experiments:
Assay in all cases: growth of human tumour cells (NCI), 48 h
UACC-257 = test system: UACC-257
NCI-H522 = test system: NCI-H522
CCRF-CEM = test system: CCRF-CEM
UACC-62 = test system: UACC-62
OVCAR-5 = test system: OVCAR-5
786-0 = test system: 786-0
HOP-92 = test system: HOP-92
NCI-H226 = test system: NCI-H226
SF-539 = test system: SF-539
SN12C = test system: SN12C
RXF 393 = test system: RXF 393
HCT-116 = test system: HCT-116
M14 = test system: M14
TK-10 = test system: TK-10
SK-MEL-5 = test system: SK-MEL-5
HOP-62 = test system: HOP-62
CAKI-1 = test system: CAKI-1
SR = test system: SR

Measured: GI50

Oc1c(Cl)c2nccnc2c2ccccc12
inactive: UACC-257 > 100 µM | NCI-H522 > 100 µM | CCRF-CEM > 100 µM | UACC-62 > 100 µM | OVCAR-5 > 100 µM | 786-0 > 100 µM | HOP-92 > 100 µM | NCI-H226 > 100 µM | SF-539 > 100 µM | SN12C > 100 µM | RXF 393 > 100 µM | HCT-116 > 100 µM | M14 > 100 µM | TK-10 > 100 µM | SK-MEL-5 > 100 µM

COc1ccc2nc3cc(Cl)ccc3c(SCC(=O)Nc3ccccc3-c3ccccc3NC(=O)CSc3c4ccc(Cl)cc4nc4ccc(OC)cc34)c2c1
inactive: UACC-257 > 100 µM | HOP-62 > 100 µM | NCI-H522 > 100 µM | CCRF-CEM > 100 µM | UACC-62 > 100 µM | OVCAR-5 > 100 µM | 786-0 > 100 µM | HOP-92 > 100 µM | NCI-H226 > 100 µM | SF-539 > 100 µM | SN12C > 100 µM | RXF 393 > 100 µM | HCT-116 > 100 µM | CAKI-1 > 100 µM | M14 > 100 µM | TK-10 > 100 µM | SK-MEL-5 > 100 µM

COC(=O)CCC1=NOC(CC2CC(CCC(=O)OC)=NO2)C1 (stereo not drawn)
inactive: UACC-257 > 100 µM | HOP-62 > 100 µM | NCI-H522 > 100 µM | CCRF-CEM > 100 µM | UACC-62 > 100 µM | OVCAR-5 > 100 µM | 786-0 > 100 µM | HOP-92 > 100 µM | NCI-H226 > 100 µM | SF-539 > 100 µM | SN12C > 100 µM | RXF 393 > 100 µM | HCT-116 > 100 µM | CAKI-1 > 100 µM | M14 > 100 µM | TK-10 > 100 µM | SK-MEL-5 > 100 µM

O=C(Cc1ccccc1)NN1C(=O)C(Cl)C1c1ccccc1O (stereo not drawn)
inactive: UACC-257 11.4 µM | HOP-62 12.6 µM | NCI-H522 3.27 µM | CCRF-CEM 3.17 µM | UACC-62 19.5 µM | OVCAR-5 15.4 µM | 786-0 16.8 µM | NCI-H226 10 µM | SN12C 27.9 µM | RXF 393 36 µM | HCT-116 5.56 µM | CAKI-1 40.2 µM | M14 14.1 µM | TK-10 45.3 µM | SR 3.98 µM

CNC1=Nc2ccc(Cl)cc2C(c2ccccc2)=NN1C
inactive: UACC-257 83 µM | HOP-62 > 100 µM | NCI-H522 > 100 µM | CCRF-CEM 83.8 µM | UACC-62 > 100 µM | OVCAR-5 > 100 µM | 786-0 54.7 µM | HOP-92 27.6 µM | NCI-H226 > 100 µM | SF-539 > 100 µM | SN12C > 100 µM | RXF 393 17.5 µM | HCT-116 66.7 µM | CAKI-1 28.5 µM | M14 > 100 µM | TK-10 84.3 µM | SK-MEL-5 49.1 µM

[O-][Cl+3]([O-])([O-])O.c1ccc(/N=c2\snc(-c3ccccc3)s2)cc1
inactive: UACC-257 > 100 µM | HOP-62 > 100 µM | NCI-H522 > 100 µM | CCRF-CEM > 100 µM | UACC-62 > 100 µM | 786-0 > 100 µM | NCI-H226 > 100 µM | SF-539 > 100 µM | SN12C > 100 µM | RXF 393 > 100 µM | HCT-116 > 100 µM | CAKI-1 > 100 µM | M14 > 100 µM | TK-10 > 100 µM | SK-MEL-5 > 100 µM | SR > 100 µM

O=C1NC(=O)c2c1n(Cc1ccccc1)c(=O)n2Cc1ccccc1
inactive: UACC-257 > 100 µM | HOP-62 > 100 µM | NCI-H522 > 100 µM | CCRF-CEM > 100 µM | UACC-62 84.3 µM | OVCAR-5 > 100 µM | 786-0 > 100 µM | HOP-92 25.8 µM | NCI-H226 > 100 µM | SF-539 36 µM | SN12C > 100 µM | RXF 393 > 100 µM | HCT-116 > 100 µM | CAKI-1 > 100 µM | M14 > 100 µM | TK-10 96.6 µM | SK-MEL-5 > 100 µM

N#C[C@]12CC3(CC[C@H]1CC1(C2)OCCO1)OCCO3
inactive: UACC-257 > 100 µM | HOP-62 > 100 µM | NCI-H522 > 100 µM | CCRF-CEM > 100 µM | UACC-62 > 100 µM | 786-0 > 100 µM | NCI-H226 > 100 µM | SF-539 > 100 µM | SN12C > 100 µM | RXF 393 > 100 µM | HCT-116 > 100 µM | CAKI-1 > 100 µM | M14 > 100 µM | TK-10 > 100 µM | SK-MEL-5 > 100 µM | SR > 100 µM

Cc1ccc(S(=O)(=O)Nc2cccc(C)c2C)cc1
inactive: UACC-257 30.8 µM | HOP-62 86.3 µM | CCRF-CEM 40.5 µM | UACC-62 66.1 µM | OVCAR-5 57.7 µM | 786-0 > 100 µM | HOP-92 29.5 µM | NCI-H226 56.4 µM | SF-539 > 100 µM | SN12C 55.1 µM | RXF 393 19 µM | HCT-116 49.1 µM | M14 37.9 µM | TK-10 65.3 µM | SK-MEL-5 31.2 µM | SR 52.5 µM

O=C(Cc1nc(-c2ccccc2)cc(=O)n1-c1ccccc1Cl)c1ccncc1
inactive: UACC-257 > 100 µM | HOP-62 > 100 µM | NCI-H522 > 100 µM | CCRF-CEM > 100 µM | UACC-62 > 100 µM | OVCAR-5 > 100 µM | 786-0 > 100 µM | HOP-92 > 100 µM | NCI-H226 > 100 µM | SF-539 > 100 µM | SN12C > 100 µM | RXF 393 > 100 µM | HCT-116 > 100 µM | CAKI-1 > 100 µM | M14 > 100 µM | TK-10 > 100 µM | SK-MEL-5 > 100 µM

Cn1cc(C(=O)C[n+]2ccccc2)c2ccccc21
inactive: UACC-257 > 100 µM | HOP-62 83.8 µM | NCI-H522 56 µM | CCRF-CEM 61.9 µM | UACC-62 > 100 µM | 786-0 > 100 µM | NCI-H226 12.5 µM | SF-539 78.3 µM | SN12C 62.4 µM | HCT-116 > 100 µM | CAKI-1 30.3 µM | M14 > 100 µM | TK-10 > 100 µM | SK-MEL-5 > 100 µM | SR > 100 µM

COC(=O)c1c(O)ccc(O)c1C(C(C)=O)C(C)=O
inactive: UACC-257 > 100 µM | HOP-62 > 100 µM | NCI-H522 45.9 µM | CCRF-CEM > 100 µM | UACC-62 96.6 µM | 786-0 > 100 µM | HOP-92 > 100 µM | SF-539 > 100 µM | SN12C > 100 µM | RXF 393 > 100 µM | HCT-116 > 100 µM | CAKI-1 > 100 µM | M14 > 100 µM | TK-10 > 100 µM | SK-MEL-5 > 100 µM
